Reference: patent US20230142592A1, “AROMATIC COMPOUND, ORGANIC SEMICONDUCTOR LAYER AND ORGANIC THIN FILM TRANSISTOR” (TOSOH CORPORATION, priority 2020, published 2023)

Key:
[1] = Solution for forming organic semiconductor layer: kept in solution state in toluene at 25° C.; type: physicochemical; conditions: .44 mg in 434 mg of toluene; heated to 50° C., allowed to cool at 25° C.
[2] = generally; cited from earlier work
[3] = Solution for forming organic semiconductor layer: kept in solution state in toluene at 25° C.; type: physicochemical; conditions: heated to 50° C. to dissolve, allowed to cool at room temperature (25° C.)
Experimental: In the air, in a 10 mL sample tube, 0.87 mg of 2,7-di(2-phenylethyl)dithienobiphenylene (Compound 1) synthesized in Example 1 and 434 mg of toluene (FUJIFILM Wako Pure Chemical Corporation, pure grade) was added and the resultant was heated to 50° C. to dissolve, and then allowed to cool at room temperature (25° C.) to thereby prepare a solution for forming an organic semiconductor layer.
The solution for forming an organic semiconductor layer was kept in a solution state after 10 hours at 25° C. (concentration of Compound 1: 0.20% by weight), confirming that this was a compound suitable for film formation by drop casting and inkjet.

[4] = Top gate-bottom contact p-type organic thin film transistor, transfer characteristics; conditions: annealed at 130° C. for 10 min
Experimental: The solution for forming an organic semiconductor layer obtained in Example 2 was used to produce a top gate-bottom contact p-type organic thin film transistor.
(§1) Furthermore, this organic thin film transistor was annealed at 130° C. for 10 min and then measured for an electric physical property.

[5] = Bottom gate-bottom contact p-type organic thin film transistor, transfer characteristics; conditions: toluene solution, annealed at 130° C. for 10 min
Experimental: as §1

Row | concentration of solution kept in a solution state after 10 hours at 25° C. [3] | Molecule | further results
1 | 1.00 % by weight | CCCCc1ccc(CCc2cc3ccc4cc5c(ccc6ccsc65)cc4c3s2)cc1 [Compound 17, 2-(2-(4-n-butylphenyl)ethyl)anthra[1,2-b:5,6-b′]dithiophene] | degradation in performance due to heat treatment [5]: almost no degradation in performance
2 | 1.00 % by weight | CCCOc1ccc(CCc2cc3ccc4cc5c(ccc6ccsc65)cc4c3s2)cc1 [Compound 23, 2-(2-(4-propoxyphenyl)ethyl)anthra[1,2-b:5,6-b′]dithiophene] | 
3 | 0.10 % by weight | COc1ccc(CCc2cc3ccc4cc5c(ccc6ccsc65)cc4c3s2)cc1 [Compound 24, 2-(2-(4-methoxyphenyl)ethyl)anthra[1,2-b:5,6-b′]dithiophene] | 
4 | 0.50 % by weight | Cc1ccc(CCc2cc3ccc4cc5c(ccc6ccsc65)cc4c3s2)cc1 [Compound 16, 2-(2-(4-methylphenyl)ethyl)anthra[1,2-b:5,6-b′]dithiophene] | 
5 | 0.20 % by weight | CCCCCCCc1ccc(CCc2cc3ccc4cc5c(ccc6ccsc65)cc4c3s2)cc1 [Compound 18, 2-(2-(4-n-heptylphenyl)ethyl)anthra[1,2-b:5,6-b′]dithiophene] | 

The next lines start with the molecule.

Row | Molecule | concentration of solution kept in a solution state after 10 hours at 25° C. [3] | further results
6 | c1ccc(-c2ccc3c(c2)sc2c4ccc(-c5ccccc5)cc4sc32)cc1 [2,7-diphenyl[1]benzothieno[3,2-b][1]benzothiophene] |  | solution state after cooling to room temperature (solubility) [1]: a solid was deposited; solubility in an organic solvent [2]: almost insoluble
7 | c1ccc(CCc2cc3ccc4c(c3s2)-c2ccc3cc(CCc5ccccc5)sc3c2-4)cc1 [Compound 1, 2,7-di(2-phenylethyl)dithienobiphenylene] | 0.20 % by weight | degradation in performance due to heat treatment [4]: almost no degradation in performance; melting point: 195 °C; degradation in performance due to heat treatment [5]: almost no degradation in performance
8 | c1ccc(CCc2cc3ccc4cc5c(ccc6cc(CCc7ccccc7)sc65)cc4c3s2)cc1 [Compound 10, 2,8-di(2-phenylethyl)anthra[1,2-b:5,6-b′]dithiophene] | 0.20 % by weight | 
9 | CCCCCCCCc1ccc2c(c1)sc1c3ccc(CCCCCCCC)cc3sc21 [2,7-dioctyl[1]benzothieno[3,2-b][1]benzothiophene, reference compound] | 0.20 % by weight | degradation in performance due to heat treatment [5]: transistor operation was not achieved
10 | 2,7-di(2-(4-heptylphenyl)ethyl)dithienobiphenylene [Compound 6] | 0.20 % by weight | 
11 | 2,7-di(2-(4-propylphenyl)ethyl)dithienobiphenylene [Compound 4] | 0.10 % by weight | 
12 | Cc1ccc(CCc2cc3ccc4c(c3s2)-c2ccc3ccsc3c2-4)cc1 [Compound 14, 2-(2-(4-methylphenyl)ethyl)dithienobiphenylene] | 1.00 % by weight | 
13 | c1ccc(CCc2cc3ccc4cc5c(ccc6ccsc65)cc4c3s2)cc1 [Compound 15, 2-(2-phenylethyl)anthra[1,2-b:5,6-b′]dithiophene] | 0.40 % by weight | 
14 | 2,7-di(2-(4-butylphenyl)ethyl)dithienobiphenylene [Compound 5] | 0.40 % by weight | 
15 | CCCCCCCCc1cc2ccc3cc4c(ccc5cc(CCCCCCCC)sc54)cc3c2s1 [2,8-dioctylanthra[1,2-b:5,6-b′]dithiophene, reference compound] | 0.20 % by weight | 
16 | c1ccc(CCc2cc3ccc4c(c3s2)-c2ccc3ccsc3c2-4)cc1 [Compound 13, 2-(2-phenylethyl)dithienobiphenylene] | 1.00 % by weight | melting point: 161 °C
